Assay results published in the NIST ThermoML archive (doi:10.1021/je900596d).
± gives the expanded uncertainty stated by the source.

Conditions: 343.18 K, Liquid, Vibrating tube method

FC(F)=C(F)C(F)(F)F [hexafluoropropene]
Conditions	mass density [kg/m3]
2323.3 kPa	1027.29 ± 1.1
2331.8 kPa	1027.71 ± 1.1
2340.3 kPa	1028.3 ± 1.1
2348.6 kPa	1028.71 ± 1.1
2357.9 kPa	1029.39 ± 1.1
2367.9 kPa	1029.94 ± 1.1
2376.2 kPa	1030.38 ± 1.1
2386.7 kPa	1030.85 ± 1.1
2396.9 kPa	1031.35 ± 1.1
2403.7 kPa	1031.5 ± 1.1
2413.7 kPa	1032.28 ± 1.1
2426.4 kPa	1032.67 ± 1.2
2437.3 kPa	1033.33 ± 1.2
2447 kPa	1034.04 ± 1.2
2457.9 kPa	1034.52 ± 1.2
2464 kPa	1034.92 ± 1.2
2470.6 kPa	1035.47 ± 1.2
2480.5 kPa	1035.86 ± 1.2
2486.7 kPa	1036.28 ± 1.1
2497.1 kPa	1037.07 ± 1.1
2503.3 kPa	1037.46 ± 1.1
2522.8 kPa	1038.69 ± 1.1
2540.4 kPa	1039.48 ± 1.1
2556.8 kPa	1040.31 ± 1.1
2578.1 kPa	1041.52 ± 1.1
2596.9 kPa	1042.44 ± 1.1
2616.9 kPa	1043.45 ± 1.1
2632.9 kPa	1044.34 ± 1.1
2650.6 kPa	1045.42 ± 1.1
2671.6 kPa	1046.57 ± 1.1
2693 kPa	1047.89 ± 1.1
2710.6 kPa	1048.77 ± 1.1
2730.2 kPa	1049.48 ± 1.1
2747.6 kPa	1050.19 ± 1.1
2764.4 kPa	1050.73 ± 1.1
2782.1 kPa	1051.54 ± 1.1
2799.6 kPa	1052.3 ± 1.1
2815.7 kPa	1053.03 ± 1.1
2831.9 kPa	1053.99 ± 1.1
2852.2 kPa	1055 ± 1.1
2887.1 kPa	1056.99 ± 1.1
2909.8 kPa	1058.07 ± 1.1
2930.4 kPa	1058.89 ± 1.1
2950.3 kPa	1059.55 ± 1.1
2967.4 kPa	1060.2 ± 1.1
2986 kPa	1061.16 ± 1.1
3013.7 kPa	1062.17 ± 1.1
3046.6 kPa	1063.75 ± 1.1
3078.2 kPa	1064.77 ± 1.1
3103.6 kPa	1065.88 ± 1.1
3134.8 kPa	1067.08 ± 1.1
3168.5 kPa	1068.48 ± 1.1
3201.9 kPa	1069.74 ± 1.1
3235.7 kPa	1071.04 ± 1.1
3266.7 kPa	1072.23 ± 1.1
3300.3 kPa	1073.66 ± 1.1
3332 kPa	1075.03 ± 1.1
3361.4 kPa	1076.36 ± 1.1
3394.9 kPa	1077.6 ± 1.1
3430.3 kPa	1078.63 ± 1.1
3463.3 kPa	1079.82 ± 1.1
3496.3 kPa	1081.01 ± 1.1
3518.3 kPa	1081.82 ± 1.2
3550.7 kPa	1083.01 ± 1.1
3586.6 kPa	1084.11 ± 1.2
3619.2 kPa	1085.32 ± 1.1
3651.4 kPa	1086.39 ± 1.2
3686 kPa	1087.66 ± 1.1
3728.2 kPa	1089.03 ± 1.1
3764.5 kPa	1090.25 ± 1.1
3805.5 kPa	1091.78 ± 1.1
3846.6 kPa	1092.95 ± 1.1
3882.5 kPa	1093.89 ± 1.1
3923.8 kPa	1095.4 ± 1.2
3956.8 kPa	1096.28 ± 1.1
3999.1 kPa	1097.44 ± 1.1
4049.2 kPa	1099.28 ± 1.1
4092.3 kPa	1100.59 ± 1.1
4134.3 kPa	1101.91 ± 1.1
4183.8 kPa	1102.89 ± 1.1
4226.9 kPa	1104.11 ± 1.1
4279.1 kPa	1105.63 ± 1.1
4326.3 kPa	1106.67 ± 1.1
4369.2 kPa	1107.87 ± 1.2
4410.8 kPa	1109.1 ± 1.2
4451.8 kPa	1110.42 ± 1.1
4504 kPa	1111.78 ± 1.1
4556.4 kPa	1112.8 ± 1.2
4599.1 kPa	1114.05 ± 1.2
4697.6 kPa	1116.51 ± 1.1
4742.5 kPa	1117.74 ± 1.2
4786.3 kPa	1118.99 ± 1.2
4833.9 kPa	1120.08 ± 1.1
4887.4 kPa	1121.18 ± 1.1
4933.1 kPa	1122.24 ± 1.1
4985.1 kPa	1123.76 ± 1.2
5029 kPa	1124.72 ± 1.2
5073.9 kPa	1125.85 ± 1.1
5132.4 kPa	1127.18 ± 1.2
5174 kPa	1128.12 ± 1.2
5238.1 kPa	1129.48 ± 1.2
5301.9 kPa	1130.82 ± 1.2
5346.6 kPa	1131.66 ± 1.2
5387.9 kPa	1132.67 ± 1.2
5429.7 kPa	1133.71 ± 1.2
5474 kPa	1134.83 ± 1.2
5517.7 kPa	1135.51 ± 1.2
5596.3 kPa	1137.23 ± 1.2
5658.9 kPa	1138.61 ± 1.2
5702.1 kPa	1139.38 ± 1.2
5743.1 kPa	1140.46 ± 1.2
5803.5 kPa	1141.76 ± 1.2
5846.3 kPa	1142.59 ± 1.2
5891.3 kPa	1143.58 ± 1.2
5933.5 kPa	1144.39 ± 1.2
5995 kPa	1145.68 ± 1.2
6036 kPa	1146.23 ± 1.2
6160 kPa	1148.79 ± 1.2
6218.2 kPa	1149.66 ± 1.2
6324.7 kPa	1151.65 ± 1.2
6365.2 kPa	1152.43 ± 1.2
6407.3 kPa	1153.32 ± 1.2
6470.4 kPa	1154.32 ± 1.2
6550 kPa	1155.81 ± 1.2
6660.8 kPa	1157.92 ± 1.2
6725.9 kPa	1159.01 ± 1.2
6839.7 kPa	1161.35 ± 1.2
6887 kPa	1162.02 ± 1.2
6930.3 kPa	1162.69 ± 1.2
6976.6 kPa	1163.25 ± 1.2
7038.7 kPa	1164.35 ± 1.2
7080.9 kPa	1165.18 ± 1.2
7123.3 kPa	1165.76 ± 1.2
